{"source": "patent US20250195464A1", "about": "“ALOTAKETAL COMPOUNDS AND DERIVATIVES THEREOF FOR USE AS ANTIVIRAL AGENTS” (priority 2022, published 2025)", "tested_on": "SARS-CoV-2 Omicron", "assay": "microbe, parasite or virus in culture", "format": "cell-based", "conditions": "Severe acute respiratory syndrome coronavirus 2, Calu-3", "note": "Like-named read-outs stand apart in the source and are kept apart here.", "data": [{"smiles": "CC(=O)O[C@]1(C)C[C@@H](/C=C(\\C)CCC=C(C)C)O[C@@]2(C=C(CO)[C@H]3CC(=O)C(C)=C[C@H]3O2)C1", "note": "[Alotaketal C]", "values": [{"measurement": "EC50", "setting": "read-out: Nucleocapsid EC50, Omicron", "value": 140, "unit": "nM"}, {"measurement": "EC50", "setting": "read-out: dsRNA EC50, Omicron", "value": 1540, "unit": "nM"}]}]}
